Measurements from patent US9480235B1, “Red lettuces with increased anthocyanins, polyphenols, and oxygen radical absorption capacity” (Rutgers, The State University of New Jersey, priority 2012, dated 2016).

Assays:
Type in all cases: in vivo, C57Bl/6J mice
[1] = tested on: diet induced obese hyperglycemic mice; test: Experiment 2: oral glucose tolerance test after daily oral NFR-S-4 aqueous extract; details: positive control 250 mg/kg
Procedure: (§1) Five-week-old male C57Bl/6J mice (Jackson Labs) were housed in cages (five mice to a cage) at 25° C. with 12-h light-dark cycle. Mice were given ad libitum access to food and water and after an acclimatization period of one week, rodent diet was switched from chow (Purina, No. 5015) to a very high fat diet (VHFD) containing 60% kcal fat (D12492, Research Diets, New Brunswick, N.J.) for a at least 12 weeks to induce obesity, insulin resistance, and hyperglycemia (Surwit et al., Clin. Exp. Met., 44:645-51, 1995). Weekly food intake per cage and individual body weight measurements were determined throughout the study. All mice were introduced to intragastric feeding prior to treatment. During this time, a gavage administration of 0.2 mL of double distilled water was performed daily for 2-3 days prior to the scheduled experiments.
(§2) For all experiments, mice were randomly divided into fasting blood glucose (FBG)-balanced experimental groups. Lettuce leaves were lyophilized powdered and suspended in 66% labrasol or water for the aqueous extract and Metformin® antidiabetic drug was dissolved in water. Blood glucose levels were measured using an AlphaTrak® handheld glucometer (Abbott Labs Inc., Abbott Park, Ill.) using test strips.
(§3) In experiment 2, high fat diet-induced obese mice, animals were given daily oral administration of NFR-S-4 aqueous extract (100 or 300 mg/kg) or vehicle (water) for 28 days (n=10) (Table 6). A Metformin® antidiabetic drug group (250 mg/kg) was included as a positive control for the animal model (n=5). Aqueous extracts were prepared by a 5:1 extraction (solvent volume to fresh weight) in hot (100° C.) acidified water (pH 2 with H2SO4) to assist with anthocyanin stability during the extraction process. Mice were fasted overnight prior to an oral glucose tolerance test. For oral glucose tolerance tests, mice were given an oral glucose challenge (2 g/kg) and blood glucose levels were measured prior to glucose challenge and 30, 60, 90, 120 and 180 minutes after glucose administration (Table 6).
(§4) Statistically significant differences between were analyzed by ANOVA followed by Dunnett's multiple comparisons test and/or paired t-tests (one tail) comparing FBG levels immediately prior to treatment (0 h) and 6 hours after treatment (Table 5). A p-value <0.05 was considered statistically significant.

[2] = tested on: diet induced obese hyperglycemic mice; test: Experiment 3: fasting blood glucose after single oral S-13 lettuce
Procedure: as §1, §2
In experiment 3, mice were treated using an oral ingestion of vehicle (66% labrasol), S-13 lettuce (100, 300 or 450 mg/kg), green Romaine lettuce (450 mg/kg, commercially available), or Metformin® antidiabetic drug (300 mg/kg) (n=4-5 Following a 4 h fasting period, FBG was measured immediately prior to treatment and 6 h post treatment (Table 7).
as §4

[3] = tested on: diet induced obese hyperglycemic mice; test: Experiment 1: fasting blood glucose after single oral NFR-S-4 lettuce; details: for FBG: mean +/- SD
Procedure: as §1, §2
In experiment 1, following a 4 hour fasting period, FBG was measured immediately prior to treatment and 6 hours post treatment. […]
as §4

[4] = tested on: diet induced obese hyperglycemic mice; test: Experiment 4: oral glucose tolerance test 2 h after oral S-13 lettuce; details: 300 mg/kg oral 2 h before test
Procedure: as §1, §2, §3
In experiment 4, mice were treated with S-13 lettuce (100 mg/kg), vehicle (66% labrasol), or Metformin® antidiabetic drug (300 mg/kg) by oral administration (n=8-10). After 2 h, mice were given an oral glucose tolerance test as described above (Table 8).
as §4

[5] = 6 h post treatment, 300 mg/kg oral

## CN(C)C(=N)N=C(N)N [Metformin]
[1]; 0 min, glucose 2 g/kg
  FBG, oral glucose tolerance test: 181 ± 26 mg/dL
[1]; 30 min
  FBG, oral glucose tolerance test: 298 ± 52 mg/dL
[1]; 60 min
  FBG, oral glucose tolerance test: 244 ± 19 mg/dL
[1]; 90 min
  FBG, oral glucose tolerance test: 247 ± 32 mg/dL
[1]; 120 min
  FBG, oral glucose tolerance test: 249 ± 35 mg/dL
[1]
  Area under the curve, oral glucose tolerance test: 30153
[2]; 0 (immediately prior to treatment), 4 h fast, 300 mg/kg oral group, mean +/- SD
  FBG: 214 ± 20 mg/dL
[2]; 0 to 6 h, 300 mg/kg oral
  % Decrease in FBG: 31 +/− 19%
[2]; [5]
  FBG: 146 ± 34 mg/dL
[3]; 0 h (immediately prior to treatment), 4 h fast, 300 mg/kg oral group
  FBG: 222 ± 19 mg/dL
[3]; 0 h to 6 h, 300 mg/kg oral
  % Decrease in FBG: 39 +/− 14%
[3]; [5]
  FBG: 133 ± 25 mg/dL
[4]; 0 min, glucose 2 g/kg
  FBG, oral glucose tolerance test: 206 ± 45 mg/dL
[4]
  Area under the curve, oral glucose tolerance test: 40683
[4]; 30 min
  FBG, oral glucose tolerance test: 261 ± 51 mg/dL
[4]; 60 min
  FBG, oral glucose tolerance test: 263 ± 69 mg/dL
[4]; 90 min
  FBG, oral glucose tolerance test: 257 ± 62 mg/dL
[4]; 120 min
  FBG, oral glucose tolerance test: 196 ± 31 mg/dL
[4]; 180 min
  FBG, oral glucose tolerance test: 176 ± 30 mg/dL
